Inhibition data for one compound are collected here from US11572590B2, “Methods for evaluating tumor cell spheroids using 3D microfluidic cell culture device” (Dana-Farber Cancer Institute, Inc., priority 2017, dated 2023).

Like-named read-outs stand apart in the source and are kept apart here.

What all share (test): SelectScreen Kinase Profiling, single point inhibition and IC50 for off-target kinases
Type in all cases: biochemical

In experiment [1] the target is T1, off-target kinases (Homo sapiens, UniProt P42679).
T1 sequence (P42679 1-507): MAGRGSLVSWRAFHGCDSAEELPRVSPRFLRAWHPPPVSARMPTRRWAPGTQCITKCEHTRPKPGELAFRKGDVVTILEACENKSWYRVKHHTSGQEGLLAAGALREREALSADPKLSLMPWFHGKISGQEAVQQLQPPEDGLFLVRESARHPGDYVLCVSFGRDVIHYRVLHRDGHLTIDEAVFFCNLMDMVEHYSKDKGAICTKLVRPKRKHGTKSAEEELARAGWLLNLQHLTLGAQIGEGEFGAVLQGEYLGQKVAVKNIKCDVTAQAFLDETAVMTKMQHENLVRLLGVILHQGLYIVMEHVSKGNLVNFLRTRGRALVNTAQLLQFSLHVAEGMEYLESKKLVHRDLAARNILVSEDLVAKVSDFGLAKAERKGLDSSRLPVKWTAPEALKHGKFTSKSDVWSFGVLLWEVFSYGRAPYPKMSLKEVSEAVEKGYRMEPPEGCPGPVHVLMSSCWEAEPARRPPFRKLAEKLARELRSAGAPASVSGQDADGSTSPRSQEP
The following applies: MATK (HYL), ZLYTE, ATP Km app.

For experiment [2], the target named is off-target kinases (Homo sapiens, UniProt P53355). The following applies: DAPK1, ATP Km app, Adapta.
off-target kinases (Homo sapiens, UniProt P53355), sequence (P53355 whole entry): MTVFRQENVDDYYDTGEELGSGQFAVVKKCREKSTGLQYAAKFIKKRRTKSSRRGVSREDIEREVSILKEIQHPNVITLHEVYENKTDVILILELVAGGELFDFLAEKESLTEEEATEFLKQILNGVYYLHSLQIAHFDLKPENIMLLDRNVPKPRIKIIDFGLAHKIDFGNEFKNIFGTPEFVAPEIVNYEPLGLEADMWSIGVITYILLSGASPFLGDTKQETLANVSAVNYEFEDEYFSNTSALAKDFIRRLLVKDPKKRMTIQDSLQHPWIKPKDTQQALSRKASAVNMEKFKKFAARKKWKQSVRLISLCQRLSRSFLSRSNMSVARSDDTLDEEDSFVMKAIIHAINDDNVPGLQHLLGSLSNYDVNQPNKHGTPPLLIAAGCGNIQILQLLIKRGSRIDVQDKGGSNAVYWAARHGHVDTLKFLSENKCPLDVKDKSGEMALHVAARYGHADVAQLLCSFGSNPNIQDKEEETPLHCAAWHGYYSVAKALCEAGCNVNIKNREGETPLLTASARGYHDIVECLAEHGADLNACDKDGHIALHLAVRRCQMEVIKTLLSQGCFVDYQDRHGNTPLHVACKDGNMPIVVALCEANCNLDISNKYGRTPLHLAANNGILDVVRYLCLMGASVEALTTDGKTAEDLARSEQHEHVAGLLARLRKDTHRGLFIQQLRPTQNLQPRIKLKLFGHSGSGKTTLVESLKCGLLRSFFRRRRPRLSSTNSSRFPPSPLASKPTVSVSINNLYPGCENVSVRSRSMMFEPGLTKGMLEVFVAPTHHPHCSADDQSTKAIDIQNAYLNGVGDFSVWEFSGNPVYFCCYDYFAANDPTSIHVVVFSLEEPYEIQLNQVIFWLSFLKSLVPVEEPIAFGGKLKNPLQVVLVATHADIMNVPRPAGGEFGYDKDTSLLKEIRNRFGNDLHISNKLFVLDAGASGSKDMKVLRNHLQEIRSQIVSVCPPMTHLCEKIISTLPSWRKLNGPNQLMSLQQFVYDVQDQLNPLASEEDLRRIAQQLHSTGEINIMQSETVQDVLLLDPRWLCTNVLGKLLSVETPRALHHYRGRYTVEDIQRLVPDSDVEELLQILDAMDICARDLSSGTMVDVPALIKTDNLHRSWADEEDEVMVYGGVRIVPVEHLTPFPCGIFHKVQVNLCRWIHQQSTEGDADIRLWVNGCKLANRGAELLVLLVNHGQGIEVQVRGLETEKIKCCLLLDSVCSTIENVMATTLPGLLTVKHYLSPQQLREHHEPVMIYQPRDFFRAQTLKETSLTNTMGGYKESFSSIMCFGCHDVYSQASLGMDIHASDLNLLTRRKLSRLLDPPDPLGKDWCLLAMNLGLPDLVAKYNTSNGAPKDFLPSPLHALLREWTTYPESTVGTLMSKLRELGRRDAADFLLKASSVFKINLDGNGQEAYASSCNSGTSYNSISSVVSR
The target in experiment [3] is off-target kinases (Homo sapiens, UniProt P11362). The settings on record: FGFR1, ZLYTE, ATP Km app.
off-target kinases (Homo sapiens, UniProt P11362), sequence (P11362 22-822): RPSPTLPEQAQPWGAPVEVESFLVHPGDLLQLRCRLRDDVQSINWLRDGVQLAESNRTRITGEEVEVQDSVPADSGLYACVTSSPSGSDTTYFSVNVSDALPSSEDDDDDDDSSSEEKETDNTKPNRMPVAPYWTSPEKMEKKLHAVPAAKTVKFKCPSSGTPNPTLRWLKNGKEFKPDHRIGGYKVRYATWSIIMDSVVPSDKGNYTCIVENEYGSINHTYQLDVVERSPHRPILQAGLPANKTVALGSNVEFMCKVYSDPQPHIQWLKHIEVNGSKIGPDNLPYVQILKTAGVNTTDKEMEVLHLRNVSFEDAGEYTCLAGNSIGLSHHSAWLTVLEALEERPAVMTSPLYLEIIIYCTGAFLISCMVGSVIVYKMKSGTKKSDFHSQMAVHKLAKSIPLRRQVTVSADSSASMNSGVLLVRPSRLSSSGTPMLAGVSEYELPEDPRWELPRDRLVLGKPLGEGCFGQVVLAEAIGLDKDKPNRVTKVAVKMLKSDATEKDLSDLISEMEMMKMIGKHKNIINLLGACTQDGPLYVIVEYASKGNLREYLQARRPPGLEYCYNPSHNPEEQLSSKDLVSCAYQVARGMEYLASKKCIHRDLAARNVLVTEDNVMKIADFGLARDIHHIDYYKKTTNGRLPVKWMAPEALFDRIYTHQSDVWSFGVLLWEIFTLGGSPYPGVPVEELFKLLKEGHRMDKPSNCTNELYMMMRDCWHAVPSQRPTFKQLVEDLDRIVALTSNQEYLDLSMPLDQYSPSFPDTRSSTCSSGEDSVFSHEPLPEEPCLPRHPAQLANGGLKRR
In experiment [4] the target is T2, off-target kinases (Homo sapiens, UniProt P46734).
T2 sequence (P46734 1-347): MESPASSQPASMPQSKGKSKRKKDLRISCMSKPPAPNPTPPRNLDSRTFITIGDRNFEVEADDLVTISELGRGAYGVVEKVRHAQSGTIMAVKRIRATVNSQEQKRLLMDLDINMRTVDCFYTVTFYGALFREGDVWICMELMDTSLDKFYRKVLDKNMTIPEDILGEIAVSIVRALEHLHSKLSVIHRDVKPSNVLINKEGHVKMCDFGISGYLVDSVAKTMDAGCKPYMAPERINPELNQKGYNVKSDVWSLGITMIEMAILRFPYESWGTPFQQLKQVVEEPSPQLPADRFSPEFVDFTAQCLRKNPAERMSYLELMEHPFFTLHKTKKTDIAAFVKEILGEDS
The following applies: MAP2K3 (MEK3), LanthaScreen Binding. Background: Time-resolved FRET reads energy transfer from a long-lived donor to a nearby acceptor.

The target of experiment [5] is off-target kinases (Homo sapiens, UniProt P16234, V561D). The settings on record: PDGFRA V561D, ATP Km app, ZLYTE.
off-target kinases (Homo sapiens, UniProt P16234, V561D), sequence (P16234 24-1089 V561D): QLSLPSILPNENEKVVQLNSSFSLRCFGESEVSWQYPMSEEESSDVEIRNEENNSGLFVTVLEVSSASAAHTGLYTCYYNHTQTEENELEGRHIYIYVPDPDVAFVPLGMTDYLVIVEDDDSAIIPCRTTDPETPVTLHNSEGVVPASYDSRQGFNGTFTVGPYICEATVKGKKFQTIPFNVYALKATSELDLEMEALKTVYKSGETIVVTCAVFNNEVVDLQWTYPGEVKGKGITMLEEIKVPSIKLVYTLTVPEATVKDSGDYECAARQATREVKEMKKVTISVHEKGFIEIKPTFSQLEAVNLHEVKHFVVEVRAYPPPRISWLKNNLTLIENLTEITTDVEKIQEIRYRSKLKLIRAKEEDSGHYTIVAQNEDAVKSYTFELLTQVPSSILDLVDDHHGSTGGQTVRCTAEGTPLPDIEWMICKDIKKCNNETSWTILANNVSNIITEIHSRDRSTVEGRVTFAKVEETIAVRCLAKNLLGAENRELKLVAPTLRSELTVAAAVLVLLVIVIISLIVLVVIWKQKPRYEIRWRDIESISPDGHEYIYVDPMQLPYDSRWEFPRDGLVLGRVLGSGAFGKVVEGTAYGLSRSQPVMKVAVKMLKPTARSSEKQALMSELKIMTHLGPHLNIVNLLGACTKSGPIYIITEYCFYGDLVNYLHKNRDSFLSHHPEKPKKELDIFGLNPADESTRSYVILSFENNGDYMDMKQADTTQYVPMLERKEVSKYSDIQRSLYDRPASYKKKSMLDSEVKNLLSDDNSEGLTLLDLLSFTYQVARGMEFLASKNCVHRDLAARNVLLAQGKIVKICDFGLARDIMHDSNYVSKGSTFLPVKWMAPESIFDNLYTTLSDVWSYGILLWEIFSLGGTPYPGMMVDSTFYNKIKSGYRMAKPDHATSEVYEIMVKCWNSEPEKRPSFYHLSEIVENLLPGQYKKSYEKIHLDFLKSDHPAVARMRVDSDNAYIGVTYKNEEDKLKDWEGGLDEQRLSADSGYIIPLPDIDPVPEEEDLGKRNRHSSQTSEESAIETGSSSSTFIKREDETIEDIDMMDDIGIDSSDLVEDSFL
Experiment [6] concerns the target off-target kinases (Homo sapiens, UniProt O95819). The following applies: MAP4K4 (HGK), ATP Km app, ZLYTE.
In experiment [7] the target is off-target kinases (Homo sapiens, UniProt Q9Y6M4). The following applies: CSNK1G3 (CK1 gamma 3), ZLYTE, ATP Km app.
off-target kinases (Homo sapiens, UniProt Q9Y6M4), sequence (Q9Y6M4 whole entry): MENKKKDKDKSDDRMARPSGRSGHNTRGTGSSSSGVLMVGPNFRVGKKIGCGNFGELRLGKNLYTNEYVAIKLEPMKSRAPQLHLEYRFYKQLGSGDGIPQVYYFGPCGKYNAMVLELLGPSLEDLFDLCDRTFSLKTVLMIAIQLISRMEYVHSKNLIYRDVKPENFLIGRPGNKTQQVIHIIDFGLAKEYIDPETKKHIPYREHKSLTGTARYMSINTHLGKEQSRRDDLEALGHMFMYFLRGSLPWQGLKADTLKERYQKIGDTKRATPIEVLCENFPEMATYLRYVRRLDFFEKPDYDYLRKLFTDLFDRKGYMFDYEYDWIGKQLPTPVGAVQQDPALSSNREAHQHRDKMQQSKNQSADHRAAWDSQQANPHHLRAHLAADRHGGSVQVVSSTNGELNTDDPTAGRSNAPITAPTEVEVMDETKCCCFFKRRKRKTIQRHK

off-target kinases (Homo sapiens, UniProt O95819), sequence (O95819 whole entry): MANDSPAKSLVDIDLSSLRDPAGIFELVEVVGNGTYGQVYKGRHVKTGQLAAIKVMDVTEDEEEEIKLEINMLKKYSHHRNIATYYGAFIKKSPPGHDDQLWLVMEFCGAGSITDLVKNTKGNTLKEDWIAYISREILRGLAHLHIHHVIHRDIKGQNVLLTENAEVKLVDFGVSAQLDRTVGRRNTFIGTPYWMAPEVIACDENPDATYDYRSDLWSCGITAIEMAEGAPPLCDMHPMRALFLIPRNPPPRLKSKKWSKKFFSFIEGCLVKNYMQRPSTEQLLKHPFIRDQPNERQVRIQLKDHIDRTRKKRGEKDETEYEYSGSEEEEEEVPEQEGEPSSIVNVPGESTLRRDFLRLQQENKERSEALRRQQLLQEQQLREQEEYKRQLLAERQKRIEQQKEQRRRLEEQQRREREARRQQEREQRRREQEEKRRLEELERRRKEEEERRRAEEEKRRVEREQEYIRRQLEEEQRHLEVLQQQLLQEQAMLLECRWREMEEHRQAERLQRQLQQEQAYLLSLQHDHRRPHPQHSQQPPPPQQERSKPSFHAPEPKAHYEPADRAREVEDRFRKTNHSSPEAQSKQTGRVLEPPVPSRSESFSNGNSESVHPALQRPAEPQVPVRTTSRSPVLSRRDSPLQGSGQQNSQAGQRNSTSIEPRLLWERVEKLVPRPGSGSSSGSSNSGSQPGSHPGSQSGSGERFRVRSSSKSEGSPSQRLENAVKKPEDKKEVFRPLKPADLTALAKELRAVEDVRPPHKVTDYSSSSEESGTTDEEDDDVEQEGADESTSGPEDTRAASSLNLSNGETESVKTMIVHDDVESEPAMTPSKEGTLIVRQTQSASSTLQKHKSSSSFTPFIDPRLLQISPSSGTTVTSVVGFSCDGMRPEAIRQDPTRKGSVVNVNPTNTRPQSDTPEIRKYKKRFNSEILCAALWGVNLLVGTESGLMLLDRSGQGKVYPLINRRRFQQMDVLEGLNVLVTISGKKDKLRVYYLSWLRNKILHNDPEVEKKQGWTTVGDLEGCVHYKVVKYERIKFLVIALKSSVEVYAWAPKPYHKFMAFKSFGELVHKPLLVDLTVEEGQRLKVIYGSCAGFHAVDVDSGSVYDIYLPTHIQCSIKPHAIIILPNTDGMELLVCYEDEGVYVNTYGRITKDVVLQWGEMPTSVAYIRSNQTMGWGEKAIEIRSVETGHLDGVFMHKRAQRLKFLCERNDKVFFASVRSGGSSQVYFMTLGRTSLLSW

Consider `N#Cc1cc(-c2ncnc(Nc3ccc(N4CCN(C5COC5)CC4)cc3)n2)ccc1OC1CCOCC1` [Compound 1, 5-(4-((4-(4-(oxetan-3-yl)piperazin-1-yl)phenyl)amino)-1,3,5-triazin-2-yl)-2-((tetrahydro-2H-pyran-4-yl)oxy)benzonitrile], for which the inhibition (as a rule, the relative decrease from the control value, in per cent) was found to be 1% at off-target kinases [1] (read-out: % Inhibition 1); 2% at off-target kinases [1] (read-out: % Inhibition 2); 2% at off-target kinases [1] (read-out: % Inhibition Avg); 42% at off-target kinases [2] (read-out: % Inhibition 1); 43% on off-target kinases [2] (read-out: % Inhibition 2); 43% at off-target kinases [2] (read-out: % Inhibition Avg). For the same compound, the inhibition at off-target kinases [3] (read-out: % Inhibition 1) is -5%; at off-target kinases [3] (read-out: % Inhibition 2) it was -2%; on off-target kinases [3] (read-out: % Inhibition Avg), -3%; on off-target kinases [4] (read-out: % Inhibition 1), 5%; at off-target kinases [4] (read-out: % Inhibition 2), 8%; on off-target kinases [4] (read-out: % Inhibition Avg), 7%. Further, the inhibition is 85% at off-target kinases [5] (read-out: % Inhibition 1); 81% at off-target kinases [5] (read-out: % Inhibition 2); 83% on off-target kinases [5] (read-out: % Inhibition Avg); 86% on off-target kinases [6] (read-out: % Inhibition 1); 86% on off-target kinases [6] (read-out: % Inhibition 2); 86% at off-target kinases [6] (read-out: % Inhibition Avg). Moreover, the inhibition at off-target kinases [7] (read-out: % Inhibition 1) is 4%; on off-target kinases [7] (read-out: % Inhibition 2), -2%; at off-target kinases [7] (read-out: % Inhibition Avg), 1%.
